biological target: T1, human M4 muscarinic acetylcholine receptor (Homo sapiens, UniProt P08173); test: human FLIPR-based M4 PAM assay, CHO-K1 cells stably transfected with human M4 receptor and chimeric G-protein Gαqi5; type: cell-based; settings: inflection point (IP) of dose response curve; acetylcholine added at 20% of maximum response; CHO-K1 human M4/Gαqi5, FLIPR Tetra
T1 construct: expressed in transfected cells; host or cells: CHO-K1
T1 sequence (P08173 1-479): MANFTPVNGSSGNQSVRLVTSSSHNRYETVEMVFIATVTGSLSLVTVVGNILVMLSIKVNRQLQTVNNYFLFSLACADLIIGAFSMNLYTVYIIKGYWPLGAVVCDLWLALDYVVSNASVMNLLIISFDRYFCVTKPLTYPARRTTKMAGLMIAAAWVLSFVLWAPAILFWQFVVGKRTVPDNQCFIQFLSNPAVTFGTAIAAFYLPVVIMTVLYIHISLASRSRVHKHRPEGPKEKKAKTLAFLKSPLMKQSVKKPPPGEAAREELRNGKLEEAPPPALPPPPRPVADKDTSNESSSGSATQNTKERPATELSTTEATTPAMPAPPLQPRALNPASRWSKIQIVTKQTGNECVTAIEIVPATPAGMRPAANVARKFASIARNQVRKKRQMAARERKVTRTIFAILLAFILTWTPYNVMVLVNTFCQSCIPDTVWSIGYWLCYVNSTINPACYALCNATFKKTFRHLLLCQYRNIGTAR
Procedure, shortened: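 The FLIPR read recorded 4 min after compound was added across a concentration range, then 3.5 min after acetylcholine giving 20% of its maximal response, with an occasional extra EC70 addition. Cells were dye-loaded for about 1 h at 37 °C. Potency is the curve inflection point from a four-parameter logistic fit.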

| SMILES | EC50 [nM] |
| --- | --- |
| COc1ccc(OC2CCN(c3nnc(C(=O)NCc4ccc5c(c4)CCO5)cc3C)CC2)cn1 [Example 176, N-(2,3-dihydro-1-benzofuran-5-ylmethyl)-6-{4-[(6-methoxypyridin-3-yl)oxy]piperidin-1-yl}-5-methylpyridazine-3-carboxamide] | 629 |
| COc1ccc(O[C@@H]2CCN(c3nnc(C(=O)N[C@@H]4CCc5ncccc5C4)cc3C)C[C@@H]2F)cn1 [Example 138B, 6-((3S,4R)-3-fluoro-4-((6-methoxypyridin-3-yl)oxy)piperidin-1-yl)-5-methyl-N-((R)-5,6,7,8-tetrahydroquinolin-6-yl)pyridazine-3-carboxamide] | 243 |
| COc1ccc(OC2CCN(c3nnc(C(=O)NCc4ccncc4)cc3C(F)F)CC2)cn1 [Example 265, 5-(Difluoromethyl)-6-(4-((6-methoxypyridin-3-yl)oxy)piperidin-1-yl)-N-(pyridin-4-ylmethyl)pyridazine-3-carboxamide] | 585 |
| Cc1cc(C(=O)NCc2ccncc2)nnc1N1CCC(OCC2CC2)CC1 [Example 152] | 259 |
| COc1ccc(OC2CCN(c3nnc(C(=O)NC4CCc5ccncc5C4)cc3C)CC2)cn1 (stereo not drawn) [Example 159, 6-{4-[(6-methoxypyridin-3-yl)oxy]piperidin-1-yl}-5-methyl-N-(5,6,7,8-tetrahydroisoquinolin-7-yl)pyridazine-3-carboxamide] | 293 |
| COc1ccc(OC2CCN(c3ncnc(N4CC(F)(F)C4)c3C)CC2)cn1 [Example 236, 4-(3,3-difluoroazetidin-1-yl)-6-(4-((6-methoxypyridin-3-yl)oxy)piperidin-1-yl)-5-methylpyrimidine] | 228 |
| COc1ccc(OC2CCN(c3ncc(C#N)c(Cl)c3C)CC2)cn1 [Example 34, 4-chloro-5-(4-((6-methoxypyridin-3-yl)oxy)piperidin-1-yl)-5-methylnicotinonitrile] | 217 |
| COc1ccc([C@@H](C)NC(=O)c2cc(C)c(N3CCC(Oc4ccc(OC)nc4)CC3)nn2)cc1 [Example 188, N-[(1R)-1-(4-methoxyphenyl)ethyl]-6-{4-[(6-methoxypyridin-3-yl)oxy]piperidin-1-yl}-5-methylpyridazine-3-carboxamide] | 1510 |
| COc1ccc(OC2CCN(c3nnc(C(=O)N[C@H]4CCc5ccccc5C4)cc3C)CC2)cn1 [Example 165B, (S)-6-{4-[(6-methoxypyridin-3-yl)oxy]piperidin-1-yl}-5-methyl-N-(1,2,3,4-tetrahydronapthalen-2-yl)pyridazine-3-carboxamide] | 527 |
| COc1ccc(OC2CCN(c3nnc(C(=O)N[C@@H]4CCc5ccccc5C4)cc3C)CC2)cn1 [Example 165A, (R)-6-{4-[(6-methoxypyridin-3-yl)oxy]piperidin-1-yl}-5-methyl-N-(1,2,3,4-tetrahydronaphthalen-2-yl)pyridazine-3-carboxamide] | 344 |
| COc1ccc(OC2CCN(c3nnc(C(=O)N[C@@H]4CCc5cc(F)ccc5C4)cc3C)CC2)cn1 [Example 184B, (R)-N-(6-fluoro-1,2,3,4-tetrahydronaphthalen-2-yl)-6-{4-[(6-methoxypyridin-3-yl)oxy]piperidin-1-yl}-5-methylpyridazine-3-carboxamide] | 1010 |
| COc1ccc(OC2CCN(c3nnc(C(=O)N[C@H]4CCc5cc(F)ccc5C4)cc3C)CC2)cn1 [Example 184A, (S)-N-(6-fluoro-1,2,3,4-tetrahydronaphthalen-2-yl)-6-{4-[(6-methoxypyridin-3-yl)oxy]piperidin-1-yl}-5-methylpyridazine-3-carboxamide] | 427 |

More lines, now with the values ahead:

| EC50 [nM] | SMILES |
| --- | --- |
| 143 | COc1ccc(OC2CCN(c3ncnc(C)c3C)CC2)cn1 [Example 242, 4-(4-((6-methoxypyridin-3-yl)oxy)piperidin-1-yl)-5,6-dimethylpyrimidine] |
| 1050 | COc1ccc(OC2CCN(c3nc(C(=O)NC4CCc5ncccc5C4)nc(Cl)c3C)CC2)cn1 (stereo not drawn) [Example 218, 4-chloro-6-(4-((6-methoxypyridin-3-yl)oxy)piperidin-1-yl)-5-methyl-N-(5,6,7,8-tetrahydroquinolin-6-yl)pyrimidine-2-carboxamide] |
| 3200 | COc1ccc(OC2CCN(c3ncnc(NCCC(F)(F)F)c3C)CC2)cn1 [Example 239, 6-(4-((6-methoxypyridin-3-yl)oxy)piperidin-1-yl)-5-methyl-N-(3,3,3-trifluoropropyl)pyrimidin-4-amine] |
| 177 | COc1ccc(OC2CCN(c3nc(Cl)nc(Cl)c3C)CC2)cc1 [Example 77, 2,4-dichloro-6-(4-(4-methoxyphenoxy)piperidin-1-yl)-5-methylpyrimidine] |
| 1550 | CCCc1ncnc(N2CCC(Oc3ccc(OC)nc3)CC2)c1C [Example 248, 4-(4-((6-methoxypyridin-3-yl)oxy)piperidin-1-yl)-5-methyl-6-propylpyrimidine] |
| 77 | Cc1c(Cl)nc(CO)nc1N1CCC(Oc2ccc3c(c2)C(=O)OC3)CC1 [Example 24, 6-((1-(6-chloro-2-(hydroxymethyl)-5-methylpyrimidin-4-yl)piperidin-4-yl)oxy)isobenzofuran-1(3H)-one] |
| 378 | Cc1c(Cl)nc(CO)nc1N1CC[C@@H](Oc2ccc3c(c2)C(=O)N(C)C3)[C@@H](F)C1 [Example 43, 6-(((3S,4R)-1-(6-chloro-2-(hydroxymethyl)-5-methylpyrimidin-4-yl)-3-fluoropiperidin-4-yl)oxy)-2-methylisoindolin-1-one] |
| 55 | COc1ccc(OC2CCN(c3nc(OC)nc(Cl)c3C)CC2)cn1 [Example 227, 4-Chloro-2-methoxy-6-(4-((6-methoxypyridin-3-yl)oxy)piperidin-1-yl)-5-methylpyrimidine] |
| 125 | Cc1cc(C(=O)N[C@H]2CCc3ncccc3C2)nnc1N1CCC(Oc2cccc(C#N)c2)CC1 [Example 130A, (S)-6-[4-(3-cyanophenoxy)piperidin-1-yl]-5-methyl-N-(5,6,7,8-tetrahydroquinolin-6-yl)pyridazine-3-carboxamide] |
| 1090 | COc1ccc(OC2CCN(c3nc(C(=O)NCc4ccccc4Cl)nc(Cl)c3C)CC2)cn1 [Example 219, 4-chloro-N-(2-chlorobenzyl)-6-(4-((6-methoxypyridin-3-yl)oxy)piperidin-1-yl)-5-methylpyrimidine-2-carboxamide] |
| 4290 | Cc1cc(C(=O)NCc2ccncc2)c(N)nc1N1CCC(Oc2cccc(C#N)c2)CC1 [Example 266, 2-Amino-6-(4-(3-cyanophenoxy)piperidin-1-yl)-5-methyl-N-(pyridin-4-ylmethyl)nicotinamide] |
| 51 | Cc1c(Cl)nc(CO)nc1N1CCC(Oc2cccc(C#N)c2)CC1 [Example 51, 3-((1-(6-chloro-2-(hydroxymethyl)-5-methylpyrimidin-4-yl)piperidin-4-yl)oxy)benzonitrile] |
| 155 | COc1ncc(OC2CCN(c3nc(C)ncc3C)CC2)cc1F [Example 74, 4-(4-((5-fluoro-6-methoxypyridin-3-yl)oxy)piperidin-1-yl)-2,5-dimethylpyrimidine] |
| 251 | COc1ccc(OC2CCN(c3nnc(-c4nnc(C)o4)cc3C)CC2)cn1 [Example 263, 2-(6-(4-((6-Methoxypyridin-3-yl)oxy)piperidin-1-yl)-5-methylpyridazin-3-yl)-5-methyl-1,3,4-oxadiazole] |
| 225 | COC(=O)c1cnc(N2CCC(Oc3ccc(OC)nc3)CC2)c(C)c1 [Example 37, methyl 6-(4-((6-methoxypyridin-3-yl)oxy)piperidin-1-yl)-5-methylnicotinate] |
